According to US10259810B2, “N-sulfonylated pyrazolo[3,4-b]pyridin-6-carboxamides and method of use” (AbbVie S.à.r.l., priority 2015, dated 2019):

What was measured:
ΔF508-CFTR [1] = molecular target: T1, ΔF508-CFTR (Homo sapiens, UniProt P13569, DEL508-508); experiment: CFTR cell surface levels using HRP-tagged ΔF508-CFTR expressing CFBE cells, in the presence of a co-corrector; assay type: cell-based; settings: HRP-tagged ΔF508-CFTR CFBE cells, in the presence of 3 μM co-corrector; for EC50: read-out: EC50
T1 construct: host or cells: CFBE41o-, doxycycline-inducible
T1 sequence (P13569 with tags, fused parts or gaps DEL508-508): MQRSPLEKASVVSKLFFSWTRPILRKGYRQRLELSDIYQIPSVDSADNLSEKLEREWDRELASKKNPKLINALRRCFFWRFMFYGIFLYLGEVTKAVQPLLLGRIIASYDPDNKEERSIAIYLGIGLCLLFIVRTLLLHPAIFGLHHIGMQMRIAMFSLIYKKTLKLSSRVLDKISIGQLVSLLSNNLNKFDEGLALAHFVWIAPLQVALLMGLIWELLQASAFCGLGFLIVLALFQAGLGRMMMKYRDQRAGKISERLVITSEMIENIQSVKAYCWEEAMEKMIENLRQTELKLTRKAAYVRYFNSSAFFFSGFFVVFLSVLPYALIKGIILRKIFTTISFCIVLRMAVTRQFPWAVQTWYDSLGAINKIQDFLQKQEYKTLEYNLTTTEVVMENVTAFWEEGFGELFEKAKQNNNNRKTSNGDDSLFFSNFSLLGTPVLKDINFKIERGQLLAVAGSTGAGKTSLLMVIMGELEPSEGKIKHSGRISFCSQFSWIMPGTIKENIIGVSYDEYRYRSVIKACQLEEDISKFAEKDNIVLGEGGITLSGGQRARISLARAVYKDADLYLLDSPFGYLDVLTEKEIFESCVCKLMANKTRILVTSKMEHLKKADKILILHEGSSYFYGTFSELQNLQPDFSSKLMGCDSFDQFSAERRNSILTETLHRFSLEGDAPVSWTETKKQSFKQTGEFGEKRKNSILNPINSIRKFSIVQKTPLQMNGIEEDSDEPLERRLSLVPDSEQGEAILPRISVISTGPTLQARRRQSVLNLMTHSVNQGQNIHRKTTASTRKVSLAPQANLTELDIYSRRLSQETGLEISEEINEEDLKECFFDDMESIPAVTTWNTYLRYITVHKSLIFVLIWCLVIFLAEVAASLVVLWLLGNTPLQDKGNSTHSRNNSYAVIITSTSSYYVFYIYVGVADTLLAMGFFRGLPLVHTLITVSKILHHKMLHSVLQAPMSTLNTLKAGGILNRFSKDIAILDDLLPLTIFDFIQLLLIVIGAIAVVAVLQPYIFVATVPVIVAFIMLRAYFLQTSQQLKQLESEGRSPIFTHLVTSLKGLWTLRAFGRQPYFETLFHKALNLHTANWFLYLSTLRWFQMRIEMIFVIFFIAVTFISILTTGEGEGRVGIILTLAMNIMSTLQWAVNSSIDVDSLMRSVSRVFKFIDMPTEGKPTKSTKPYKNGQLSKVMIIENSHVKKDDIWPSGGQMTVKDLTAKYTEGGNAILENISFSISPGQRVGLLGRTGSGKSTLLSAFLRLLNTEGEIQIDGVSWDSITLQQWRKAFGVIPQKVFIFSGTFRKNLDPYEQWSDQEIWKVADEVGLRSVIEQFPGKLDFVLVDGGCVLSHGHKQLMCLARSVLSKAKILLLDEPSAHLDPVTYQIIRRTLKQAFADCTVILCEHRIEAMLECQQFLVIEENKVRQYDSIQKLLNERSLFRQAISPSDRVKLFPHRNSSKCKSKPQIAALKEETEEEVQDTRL
In short: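 Chemiluminescent read-out of surface HRP (15 min, dark) after PBS washes. Activity is normalized as 100×(sample−DMSO)/(3 μM co-corrector alone−DMSO).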

ΔF508-CFTR [2] = molecular target: T1, ΔF508-CFTR; experiment: CFTR cell surface levels using HRP-tagged ΔF508-CFTR expressing CFBE cells, intrinsic corrector capacity; assay type: cell-based; parameters: % Activation: concentration or dose not given beside the values; settings: HRP-tagged ΔF508-CFTR expressing CFBE41o- cells, compound alone (intrinsic corrector capacity), 20 hours at 33° C.; for EC50: read-out: EC50
In short: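 Surface ΔF508-CFTR was measured as HRP chemiluminescence from an extracellular-loop-4 tag, expressed as percent activity between DMSO and a […] corrector control.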

SMILES: CCS(=O)(=O)NC(=O)c1cc(N2CCCC(OC)C2)c2c(C(C)C)nn(-c3cccc(C)c3)c2n1 (stereo not drawn) [Compound 163, N-(ethanesulfonyl)-4-(3-methoxypiperidin-1-yl)-1-(3-methylphenyl)-3-(propan-2-yl)-1H-pyrazolo[3,4-b]pyridine-6-carboxamide]
- % Activation (ΔF508-CFTR [1]): 342.3%
- EC50 (ΔF508-CFTR [1]): 112 nM
- % Activation (ΔF508-CFTR [2]): 175.4%
- EC50 (ΔF508-CFTR [2]): 442 nM

SMILES: Cc1cccc(-n2nc(C(C)C)c3c(N4CCC(CF)CC4)cc(C(=O)NS(C)(=O)=O)nc32)c1 [Compound 164, 4-[4-(fluoromethyl)piperidin-1-yl]-N-(methanesulfonyl)-1-(3-methylphenyl)-3-(propan-2-yl)-1H-pyrazolo[3,4-b]pyridine-6-carboxamide]
- % Activation (ΔF508-CFTR [1]): 492.45%
- EC50 (ΔF508-CFTR [1]): 388 nM
- % Activation (ΔF508-CFTR [2]): 295.25%
- EC50 (ΔF508-CFTR [2]): 594 nM

SMILES: Cc1cccc(-n2nc(C(C)C)c3c(N4CCC(S(C)(=O)=O)CC4)cc(C(=O)NS(C)(=O)=O)nc32)c1 [Compound 165, N-(methanesulfonyl)-4-[4-(methanesulfonyl)piperidin-1-yl]-1-(3-methylphenyl)-3-(propan-2-yl)-1H-pyrazolo[3,4-b]pyridine-6-carboxamide]
- % Activation (ΔF508-CFTR [1]): 534.2%
- EC50 (ΔF508-CFTR [1]): 885 nM
- % Activation (ΔF508-CFTR [2]): 373.95%
- EC50 (ΔF508-CFTR [2]): 1780 nM

SMILES: CC(C)Oc1nn(-c2ccccc2)c2nc(C(=O)NS(C)(=O)=O)cc(-c3ccc(N4CCOCC4)cc3)c12 [Compound 166, N-(methanesulfonyl)-4-[4-(morpholin-4-yl)phenyl]-1-phenyl-3-[(propan-2-yl)oxy]-1H-pyrazolo[3,4-b]pyridine-6-carboxamide]
- % Activation (ΔF508-CFTR [1]): 408.53%
- EC50 (ΔF508-CFTR [1]): 310 nM
- % Activation (ΔF508-CFTR [2]): 235.2%
- EC50 (ΔF508-CFTR [2]): 439 nM

SMILES: COCCN(C)c1cc(C(=O)NS(C)(=O)=O)nc2c1c(C(C)C)nn2-c1cccc(C)c1 [Compound 170, N-(methanesulfonyl)-4-[(2-methoxyethyl)(methyl)amino]-1-(3-methylphenyl)-3-(propan-2-yl)-1H-pyrazolo[3,4-b]pyridine-6-carboxamide]
- % Activation (ΔF508-CFTR [1]): 425.6%
- EC50 (ΔF508-CFTR [1]): 722 nM
- % Activation (ΔF508-CFTR [2]): 213.5%
- EC50 (ΔF508-CFTR [2]): 975 nM

SMILES: Cc1cccc(-n2nc(C(C)C)c3c(N4CCC5(CCOCC5)C4)cc(C(=O)NS(C)(=O)=O)nc32)c1 [Compound 171, N-(methanesulfonyl)-1-(3-methylphenyl)-4-(8-oxa-2-azaspiro[4.5]decan-2-yl)-3-(propan-2-yl)-1H-pyrazolo[3,4-b]pyridine-6-carboxamide]
- % Activation (ΔF508-CFTR [1]): 289.23%
- EC50 (ΔF508-CFTR [1]): 312 nM
- % Activation (ΔF508-CFTR [2]): 143.4%
- EC50 (ΔF508-CFTR [2]): 787 nM

SMILES: CCCCOC1CCN(c2cc(C(=O)NS(C)(=O)=O)nc3c2c(C(C)C)nn3-c2ccc(F)cc2)CC1 [Compound 172, 4-(4-butoxypiperidin-1-yl)-1-(4-fluorophenyl)-N-(methanesulfonyl)-3-(propan-2-yl)-1H-pyrazolo[3,4-b]pyridine-6-carboxamide]
- % Activation (ΔF508-CFTR [1]): 462.4%
- EC50 (ΔF508-CFTR [1]): 207 nM
- % Activation (ΔF508-CFTR [2]): 280.03%
- EC50 (ΔF508-CFTR [2]): 330 nM

SMILES: COC1(C)CCN(c2cc(C(=O)NS(C)(=O)=O)nc3c2c(C(C)C)nn3-c2ccc(F)cc2)CC1 [Compound 173, 1-(4-fluorophenyl)-N-(methanesulfonyl)-4-(4-methoxy-4-methylpiperidin-1-yl)-3-(propan-2-yl)-1H-pyrazolo[3,4-b]pyridine-6-carboxamide]
- % Activation (ΔF508-CFTR [1]): 183.2%
- EC50 (ΔF508-CFTR [1]): 433 nM
- % Activation (ΔF508-CFTR [2]): 51.395%
- EC50 (ΔF508-CFTR [2]): 412 nM

SMILES: COC1CCN(c2cc(C(=O)NS(=O)(=O)CCNC(=O)c3ccccc3C(=O)O)nc3c2c(C2CCC2)nn3-c2ccccc2)CC1 [Compound 174, 2-[(2-{[3-cyclobutyl-4-(4-methoxypiperidin-1-yl)-1-phenyl-1H-pyrazolo[3,4-b]pyridine-6-carbonyl]sulfamoyl}ethyl)carbamoyl]benzoic acid]
- % Activation (ΔF508-CFTR [1]): 545%
- EC50 (ΔF508-CFTR [1]): 468 nM
- % Activation (ΔF508-CFTR [2]): 347.9%
- EC50 (ΔF508-CFTR [2]): 754 nM

SMILES: CC(C)COC1CCN(c2cc(C(=O)NS(C)(=O)=O)nc3c2c(C(C)C)nn3-c2ccc(F)cc2)CC1 [Compound 175, 1-(4-fluorophenyl)-N-(methanesulfonyl)-4-[4-(2-methylpropoxy)piperidin-1-yl]-3-(propan-2-yl)-1H-pyrazolo[3,4-b]pyridine-6-carboxamide]
- % Activation (ΔF508-CFTR [1]): 461.1%
- EC50 (ΔF508-CFTR [1]): 200 nM
- % Activation (ΔF508-CFTR [2]): 270.5%
- EC50 (ΔF508-CFTR [2]): 337 nM

SMILES: COC1CCN(c2cc(C(=O)NS(=O)(=O)CC(F)(F)F)nc3c2c(C2CCC2)nn3-c2ccccc2)CC1 [Compound 176, 3-cyclobutyl-4-(4-methoxypiperidin-1-yl)-1-phenyl-N-(2,2,2-trifluoroethanesulfonyl)-1H-pyrazolo[3,4-b]pyridine-6-carboxamide]
- % Activation (ΔF508-CFTR [1]): 390.43%
- EC50 (ΔF508-CFTR [1]): 209 nM
- % Activation (ΔF508-CFTR [2]): 190.4%
- EC50 (ΔF508-CFTR [2]): 337 nM

SMILES: CC(C)c1nn(-c2ccc(F)cc2)c2nc(C(=O)NS(C)(=O)=O)cc(N3CCCC(C(F)F)C3)c12 (stereo not drawn) [Compound 178, 4-[3-(difluoromethyl)piperidin-1-yl]-1-(4-fluorophenyl)-N-(methanesulfonyl)-3-(propan-2-yl)-1H-pyrazolo[3,4-b]pyridine-6-carboxamide]
- % Activation (ΔF508-CFTR [1]): 381.73%
- EC50 (ΔF508-CFTR [1]): 232 nM
- % Activation (ΔF508-CFTR [2]): 202.8%
- EC50 (ΔF508-CFTR [2]): 347 nM

SMILES: CC(C)c1nn(-c2ccc(F)cc2)c2nc(C(=O)NS(C)(=O)=O)cc(N3CC4(CCCOC4)C3)c12 [Compound 179, 1-(4-fluorophenyl)-N-(methanesulfonyl)-4-(6-oxa-2-azaspiro[3.5]nonan-2-yl)-3-(propan-2-yl)-1H-pyrazolo[3,4-b]pyridine-6-carboxamide]
- % Activation (ΔF508-CFTR [1]): 248.85%
- EC50 (ΔF508-CFTR [1]): 406 nM
- % Activation (ΔF508-CFTR [2]): 89.165%
- EC50 (ΔF508-CFTR [2]): 879 nM

SMILES: CC(C)c1nn(-c2ccc(F)cc2)c2nc(C(=O)NS(C)(=O)=O)cc(N3CCC4(CCCO4)CC3)c12 [Compound 180, 1-(4-fluorophenyl)-N-(methanesulfonyl)-4-(1-oxa-8-azaspiro[4.5]decan-8-yl)-3-(propan-2-yl)-1H-pyrazolo[3,4-b]pyridine-6-carboxamide]
- % Activation (ΔF508-CFTR [1]): 290.53%
- EC50 (ΔF508-CFTR [1]): 300 nM
- % Activation (ΔF508-CFTR [2]): 129.5%
- EC50 (ΔF508-CFTR [2]): 570 nM

SMILES: CS(=O)(=O)NC(=O)c1cc(OCC2CCCCC2)c2c(C3CCC3)nn(-c3ccccc3)c2n1 [Compound 181, 3-cyclobutyl-4-(cyclohexylmethoxy)-N-(methanesulfonyl)-1-phenyl-1H-pyrazolo[3,4-b]pyridine-6-carboxamide]
- % Activation (ΔF508-CFTR [1]): 357.93%
- EC50 (ΔF508-CFTR [1]): 435 nM
- % Activation (ΔF508-CFTR [2]): 137.73%
- EC50 (ΔF508-CFTR [2]): 398 nM

SMILES: COCCC1CCN(c2cc(C(=O)NS(C)(=O)=O)nc3c2c(C2CCC2)nn3-c2ccccc2)CC1 [Compound 183, 3-cyclobutyl-N-(methanesulfonyl)-4-[4-(2-methoxyethyl)piperidin-1-yl]-1-phenyl-1H-pyrazolo[3,4-b]pyridine-6-carboxamide]
- % Activation (ΔF508-CFTR [1]): 498.57%
- EC50 (ΔF508-CFTR [1]): 214 nM
- % Activation (ΔF508-CFTR [2]): 302%
- EC50 (ΔF508-CFTR [2]): 389 nM

SMILES: CS(=O)(=O)NC(=O)c1cc(N2CC3(CCCC3)C2)c2c(C3CCC3)nn(-c3ccccc3)c2n1 [Compound 184, 4-(2-azaspiro[3.4]octan-2-yl)-3-cyclobutyl-N-(methanesulfonyl)-1-phenyl-1H-pyrazolo[3,4-b]pyridine-6-carboxamide]
- % Activation (ΔF508-CFTR [1]): 282.7%
- EC50 (ΔF508-CFTR [1]): 574 nM
- % Activation (ΔF508-CFTR [2]): 95.405%
- EC50 (ΔF508-CFTR [2]): 719 nM

SMILES: CS(=O)(=O)NC(=O)c1cc(N2CC3CC3C2)c2c(C3CCC3)nn(-c3ccccc3)c2n1 (stereo not drawn) [Compound 186, 4-(3-azabicyclo[3.1.0]hexan-3-yl)-3-cyclobutyl-N-(methanesulfonyl)-1-phenyl-1H-pyrazolo[3,4-b]pyridine-6-carboxamide]
- % Activation (ΔF508-CFTR [1]): 381.87%
- EC50 (ΔF508-CFTR [1]): 531 nM
- % Activation (ΔF508-CFTR [2]): 209.57%
- EC50 (ΔF508-CFTR [2]): 616 nM

SMILES: CS(=O)(=O)NC(=O)c1cc(-c2ccc(N3CCC(C#N)CC3)nc2)c2c(C3CCC3)nn(-c3ccnc(N4CCCC4)c3)c2n1 [Compound 189, 4-[6-(4-cyanopiperidin-1-yl)pyridin-3-yl]-3-cyclobutyl-N-(methanesulfonyl)-1-[2-(pyrrolidin-1-yl)pyridin-4-yl]-1H-pyrazolo[3,4-b]pyridine-6-carboxamide]
- % Activation (ΔF508-CFTR [1]): 409.6%
- EC50 (ΔF508-CFTR [1]): 236 nM
- % Activation (ΔF508-CFTR [2]): 236.2%
- EC50 (ΔF508-CFTR [2]): 421 nM

SMILES: CS(=O)(=O)NC(=O)c1cc(N2CC3(CCCCC3)C2)c2c(C3CCC3)nn(-c3ccccc3)c2n1 [Compound 192, 4-(2-azaspiro[3.5]nonan-2-yl)-3-cyclobutyl-N-(methanesulfonyl)-1-phenyl-1H-pyrazolo[3,4-b]pyridine-6-carboxamide]
- % Activation (ΔF508-CFTR [1]): 254.6%
- EC50 (ΔF508-CFTR [1]): 866 nM
- % Activation (ΔF508-CFTR [2]): 81.49%
- EC50 (ΔF508-CFTR [2]): 1140 nM

SMILES: CO[C@H]1C[C@@H](c2nn(-c3ccccc3)c3nc(C(=O)NS(C)(=O)=O)cc(-c4ccc(N5CCC(C#N)CC5)nc4)c32)C1 [Compound 194, 4-[6-(4-cyanopiperidin-1-yl)pyridin-3-yl]-N-(methanesulfonyl)-3-(cis-3-methoxycyclobutyl)-1-phenyl-1H-pyrazolo[3,4-b]pyridine-6-carboxamide]
- % Activation (ΔF508-CFTR [1]): 427.45%
- EC50 (ΔF508-CFTR [1]): 371 nM
- % Activation (ΔF508-CFTR [2]): 213.75%
- EC50 (ΔF508-CFTR [2]): 745 nM
